Results as given in patent publication US20130045890A1, “TEST FOR MALE FERTILITY” (Rigshospitalet Copenhagen University Hospital, priority 2010, published 2013).
Values joined by “and” are separate entries in the source; they are usually repeats but may differ in a detail not shown here. Equal values may be shown once. “Also recorded” adds a separate entry of the source.

Tests used:
human spermatozoa [1] = assay: Intracellular free calcium ([Ca2+]i) by single cell fura-2 imaging in human spermatozoa; type: cell-based; details: for effect of non-genomic VDR antagonist pretreatment on the calcium response to 1,25(OH)2D3: pretreatment 1-40 μM
Method: The intracellular free calcium concentration ([Ca2+]i) was measured in human spermatozoa from 12 normal men. Freshly delivered semen samples went through percoll density gradient centrifugation to optimize the number of spermatozoa expressing VDR and the metabolising enzymes. […] Subsequently 80 μl sperm content were diluted in 920 μl Krebs-Ringer buffer and were loaded on polynysine-coated chambers to minimize movement of the vital spermatozoa (Lab-Tek; Nalge Nunc International, USA).
Excitation was obtained by a Polychrome V illuminator from Till Photonics (Germany) and images were acquired using a Cool Snap CCD camera (Photometrics, USA) from Robert Scientific (Malaysia).
After background subtraction, ratio images were formed using MetaFluor software.
Semen samples were separated by percoll density gradient centrifugation to ensure viable and motile spermatozoa and resuspended in capacitating media for 1.5 hours. Afterwards, loaded with 3 μM of the fluorescent probe (intracellular calcium binding) fura-2/AM (Invitrogen, USA) for 30 min, centrifuged (10 min at 300 g) and washed with Krebs-Ringer buffer (120 mM NaCl, 15 mM NaHCO3, 5 mM KCl, 1 mM CaCl2, 5 mM Na2HPO4, 1 mM MgCl2 pH 7.3). […] Subsequently, 80 μl of the sperm sample was diluted in 920 μl Krebs-Ringer buffer and loaded on polylysine-coated chambers to minimize movement of the spermatozoa (Lab-Tek; Nalge Nunc International, USA). […] Excitation was obtained by a Polychrome Villuminator from Till Photonics (Germany) and images were acquired using a Cool Snap CCD camera (Photometrics, USA) from Robert Scientific (Malaysia). […] After background subtraction, ratio images were formed using MetaFluor software.
All experiments started by using low magnification to ensure visibility of several spermatozoa simultaneously. […] All measurements of [Ca2+]i were based upon evaluation of at least three spermatozoa simultaneously (see exact number in figure legends), and were repeated in at least three separate experiments. We used 10 different semen donors to ensure that all experiments were reproduced on semen samples from at least two different men.

human spermatozoa [2] = assay: Acrosome reaction of motile spermatozoa (Pisum sativum agglutinin-FITC staining); type: cell-based
Method: Acrosome status was assessed according to a modified version of the method described by Cross et al. 1986. […] . When more than half the head of a spermatozoon was brightly and uniformly fluorescent, the acrosome was considered to be intact. Spermatozoa without fluorescence or with a fluorescing band limited to the equatorial segment were considered to be acrosome-reacted. Spermatozoa with a fluorescing band limited to the equatorial segment were named eq-AR. The person assessing the slides was blinded to the treatment of the sample.

human spermatozoa [3] = assay: Induction of sperm motility (ABC motility) in semen samples in vitro; details: for sperm motility (ABC) in young normal men: 1 nM 1,25(OH)2D3, p=0.01; for sperm motility in infertile/subfertile men: 1 nM 1,25(OH)2D3, p=0.80
Method: The preparation was placed on the heating stage of a microscope at 37° C. and immediately examined at x400 magnification counting 200 spermatozoa. The sperm were classified as progressive motile (WHO class A+B), non-progressive motile (class C) or immotile (class D). The motility counting was repeated on a second aliquot of 10 μl well-mixed semen.
The participants produced a semen sample by masturbation. Self-reported information of duration of ejaculation abstinence was obtained. Trained technicians conducted semen analysis Semen volume was estimated by weighing. For sperm motility assessment, duplicates of 10 μl of well-mixed semen were placed on a glass slide, examined on a heating stage kept at 37° C., under a microscope at ×400 magnification, and spermatozoa were classified as progressive motile (WHO class A+B), non-progressive motile (class C) or immotile (class D). The average of the two motility assessments was used. For the assessment of the sperm concentration the samples were diluted in a solution of 0.6 mol/l NaHCO3 and 0.4% (v/v) formaldehyde in distilled water, and subsequently assessed using Bürker-Türk haemocytometer. Only spermatozoa with tails were counted. Finally, smears were prepared, Papanicolaou stained and spermatozoa morphology assessed according to strict criteria.
Their semen samples were assessed as described above. […] Motility assessment was conducted in 17 samples (in duplicates) under non-capacitating conditions (in their seminal plasma), and 3 samples were also analyzed in capacitating conditions. 7 consecutively included men were used to investigate a dose-response relationship between VD and sperm motility.

[4] = 1,25(OH)2D3 after pretreatment with nifedipine 10 μM
[5] = higher 1,25(OH)2D3 concentrations

C=C1/C(=C\C=C2/CCC[C@]3(C)[C@@H]([C@H](C)CCCC(C)(C)O)CC[C@@H]23)C[C@@H](O)C[C@@H]1O [1,25(OH)2D3, 1,25-dihydroxyvitamin D3]
effect of pre-treatment with 1,25(OH)2D3 on the calcium effect of progesterone (human spermatozoa [1]): could not be abrogated
maximum amplitude of the calcium increase, higher than baseline calcium level (human spermatozoa [1]; 1 nM 1,25(OH)2D3): 5-10 fold
calcium response in non-capacitating media (human spermatozoa [1]; 1 nM 1,25(OH)2D3, versus capacitating media): lower amplitude
amplitude relative to the amplitude elicited by 10 μM progesterone (human spermatozoa [1]; 1,25(OH)2D3 (1 nM elsewhere in the source)): 40% and 40-80%
effect on intracellular calcium (human spermatozoa [1]; 1,25(OH)2D3, printed range 50 μM-10 μM, 100 μM-10 μM): induced a rapid increase in intracellular calcium
increase in intracellular calcium from baseline (human spermatozoa [1]; 1,25(OH)2D3 added to motile spermatozoa, calcium containing medium): 5-10 fold
length of repolarisation phase (human spermatozoa [1]; [4]): 4 min
maximum amplitude of calcium increase, higher than baseline (human spermatozoa [1]; [4]): 7 fold
threshold for the observed all-or-nothing calcium response (human spermatozoa [1]; 1,25(OH)2D3 concentration): 10 to 50 µM
duration of plateau phase (human spermatozoa [1]; <10 nM 1,25(OH)2D3): up to 50 sec
start of the calcium increase in the neck region (human spermatozoa [1]; after addition of 1,25(OH)2D3): ≤ 5 s
increase in [Ca2+]i in calcium free media with EGTA (words) (human spermatozoa [1]; calcium free media, 5 μM EGTA): Neither, 1,25(OH)2D3 nor progesterone were able to induce an increase in intracellular calcium; also recorded: could not induce an increase in [Ca2+]i
dependence of amplitude on concentration (human spermatozoa [1]; [5]): did not seem to increase markedly with higher concentration; also recorded: did not increase with higher 1,25(OH)2D3 concentrations
duration of plateau phase (human spermatozoa [1]; [5]): 50 to 300 s
calcium response in calcium free media without EGTA (human spermatozoa [1]; potentially contaminated [Ca2+]<5 uM): marked response; also recorded: increased intracellular calcium rapidly
median percentage of spermatozoa with an equatorial band (eq. AR) (human spermatozoa [2]; 1,25(OH)2D3 10^-9M (control 4.7%), p=0.214): 5.3%
median percentage of acrosome reacted spermatozoa (human spermatozoa [2]; 1,25(OH)2D3 10^-9M, capacitating media (control 12%)): 21%
average increase in acrosome reacted spermatozoa (human spermatozoa [2]; 1,25(OH)2D3 10^-9M, capacitating media, p=0.024): 6%
acrosome reacted spermatozoa in non-capacitating conditions (human spermatozoa [2]; NaCl, 6 men, VD treated (control 3.7%)): 4.2%
sperm motility (ABC) in young normal men (human spermatozoa [3]): increased significantly; also recorded: modest increase in sperm motility
sperm motility (ABC) in young normal men (human spermatozoa [3]; listed as calcitriol): significant increase in normal men
sperm motility in infertile/subfertile men (human spermatozoa [3]): did not increase; also recorded: no increase in sperm motility
sperm motility in infertile/subfertile men (human spermatozoa [3]; listed as activated VD): did not increase in sperm motility
sperm motility in infertile/subfertile men (human spermatozoa [3]; listed as calcitriol): unable to increase motility in infertile men
increase in median sperm motility (ABC) (human spermatozoa [3]; 1,25(OH)2D3 10-14M to 10^-9M, dose-response, 7 men): 2-7%
median decrease in sperm motility compared with control (human spermatozoa [3]; 1,25(OH)2D3 10^-5M): 15%
median increase in sperm motility (ABC) (human spermatozoa [3]; 1,25(OH)2D3 10^-9M, p=0.006): 7%
sperm motility (human spermatozoa [3]; 1,25(OH)2D3 concentrations above 10^-7M): decreased motility compared with control
increase in mean sperm motility (human spermatozoa [3]; 10^-9M 1,25(OH)2D3, 30 min, room temperature, 17 men, p=0.010): 2.9%

C=C1/C(=C\C=C2/CCC[C@]3(C)[C@@H]([C@H](C)CCCC(C)(C)O)CC[C@@H]23)C[C@@H](O)C[C@H]1O [1β, 25(OH)2D3]
effect of non-genomic VDR antagonist pretreatment on the calcium response to 1,25(OH)2D3 (human spermatozoa [1]; 1 nM calcitriol): completely blocked; also recorded: abrogated the response to 1,25(OH)2D3 completely
effect of non-genomic VDR antagonist pretreatment on the calcium response to 1,25(OH)2D3 (human spermatozoa [1]; 1 nM calcitriol, listed as 1β,25(OH) 2D3): blocked completely

C=C1CC[C@H](O)C/C1=C/C=C1\CCC[C@]2(C)[C@@H]([C@H](C)CCCC(C)(C)O)CC[C@@H]12 [25-OH D3, 25-hydroxycholecalciferol]
effect on intracellular calcium (human spermatozoa [1]; 25-OH D3 up to 100 nM, normal media): no effect on intracellular calcium levels
effect on intracellular calcium (human spermatozoa [1]; 25-OH D3 up to 100 nM, normal media, listed as 25-0H D3): unable to elicit an increase in [Ca2+]i

COc1ccc2c(c1)CC[C@@H]1[C@@H]2CC[C@]2(C)[C@@H](NCCCCCCN3C(=O)C=CC3=O)CC[C@@H]12 [U73122, 1-[6-[[17fi-3-methoxyestra-1,3,5(10)-trien-17-yl]amino]hexyl]-1H-pyrrole-2,5-dione]
effect on the calcium response to 1,25(OH)2D3 (human spermatozoa [1]; 2 μM U73122, no concentration): unable to induce a rapid increase in [Ca2+]i; also recorded: caused a delayed and diminished response to 1,25(OH)2D3
effect on the rapid calcium increase elicited with 1 nM 1,25(OH)2D3 (human spermatozoa [1]; 5 μM U73122): delayed in these spermatozoa and the amplitude was smaller or absent
spermatozoa that remained low and stable in intracellular calcium (human spermatozoa [1]; 5 μM U73122, normal calcium containing media): 10-20%
increase of baseline [Ca2+]i (human spermatozoa [1]; 10 μM U73122): more than 5 fold
spermatozoa that increased their baseline [Ca2+]i (human spermatozoa [1]; 10 μM U73122): > 80%
effect of PLC inhibition on the calcium effect of progesterone (human spermatozoa [1]; U73122): unable to abrogate the effect of progesterone

C=C1/C(=C\C=C2/CCC[C@]3(C)[C@@H]([C@H](C)/C=C/[C@@H](O)C4(C(=O)OCCCC)CC4)CC[C@@H]23)C[C@@H](O)C[C@@H]1O [ZK159222]
effect of nuclear VDR antagonist on the calcium response to 1,25(OH)2D3 (human spermatozoa [1]; ZK159222 0.1-100 μM, 1 nM calcitriol): could not be abrogated; also recorded: unable to abrogate or suppress the effect of 1,25(OH)2D3 treatment

C[C@H](CCC(=O)O)C[C@H](C)C[C@H](C)C(=O)/C=C(\O)[C@H](C)C[C@H](C)C/C=C/[C@@H](C)[C@@H](O)[C@@H](C)[C@@H](O)C[C@@H]1CC[C@@](C)([C@H]2CC[C@@](C)([C@@H](C)O)O2)O1 [ionomycin]
increase in [Ca2+]i in calcium free media with EGTA (words) (human spermatozoa [1]; ionomycin 500 nM): low but significant increase in the intracellular calcium; also recorded: elicited only a small Ca2+ rise
amplitude of the response from baseline (human spermatozoa [1]; ionomycin 500 nM, calcium free media with EGTA): < 3 fold
increase in [Ca2+]i in calcium free media with EGTA (words) (human spermatozoa [1]; ionomycin 500 nM, listed as Ionomycin): low but reproducible increase in [Ca2+]i

CC(=O)[C@H]1CC[C@H]2[C@@H]3CCC4=CC(=O)CC[C@]4(C)[C@H]3CC[C@]12C [progesterone]
increase in [Ca2+]i in calcium free media with EGTA (words) (human spermatozoa [1]; calcium free media, 5 μM EGTA): Neither, 1,25(OH)2D3 nor progesterone were able to induce an increase in intracellular calcium; also recorded: could not induce an increase in [Ca2+]i

C/C=C(/C)C(=O)O[C@H]1C(C)=C2[C@H]([C@@H]1OC(=O)CCCCCCC)[C@@](C)(OC(C)=O)C[C@H](OC(=O)CCC)[C@@]1(O)[C@H]2OC(=O)[C@@]1(C)O [thapsigargin]
effect on baseline calcium concentration (human spermatozoa [1]; thapsigargin 4 μM): caused a slow increase in baseline calcium concentration
calcium response to 1,25(OH)2D3 after thapsigargin (human spermatozoa [1]; thapsigargin 4 μM, 1,25(OH)2D3 added 9 min later): unable to elicit a substantial calcium response; also recorded: diminished the effect of 1,25(OH)2D3
stable plateau, higher than baseline calcium concentration (human spermatozoa [1]; thapsigargin 4 μM, nine minutes after exposure): 3 fold
calcium response to 1,25(OH)2D3 after thapsigargin (human spermatozoa [1]; thapsigargin <1 μM): unable to abrogate the effect of 1,25(OH)2D3
